Common to all, as to format: physicochemical, human
Data set [1] can be described thus: LC/MS of blood plasma sample: time from blood collection to cooling of blood (Table E). The following applies: for Rate of increase or decrease: detection intensity relative to 1 at 1 minute or less, blood collection to cooling 5 minutes; for Increase or decrease: detection intensity, blood collection to cooling 5 minutes or more vs 1 minute or less. More on the design: key to Rate of increase or decrease / Rate of increase or decrease (first value, increase): detection intensity relative to ≤1 min to cooling = 1.

The nature of data set [2]: LC/MS of serum sample: time from centrifugation to isolation (Table K). More on the design: key to Rate of increase or decrease: detection intensity relative to the 30-minute value set as 1. As to conditions: for Rate of increase or decrease: after 6 hours from centrifugation to isolation, detection intensity relative to 1 at 30 minutes; for Increase or decrease / Time when compound is affected: serum sample, LC/MS; for Increase or decrease: detection intensity vs 30 minutes from centrifugation to isolation; for Time when compound is affected: time from centrifugation to isolation, detection intensity changed by 30% or more vs 30 minutes. The gist of the method: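 Serum left at room temperature 30 min, 1 h or 6 h between centrifugation (3500 rpm, 5 min, room temperature) and isolation, then frozen and analysed by LC/MS (Discovery HS F5-3 column, 40° C., 0.1% formic acid water/acetonitrile, electrospray, MRM). Values are detection intensity relative to the 30-min condition set to 1.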

Data set [3] in a line: LC/MS of blood plasma sample: number of times of freezing and thawing (Table F). As to conditions: for Rate of increase or decrease: detection intensity relative to 1 at 2 times; for Increase or decrease: detection intensity. The procedure, abridged:
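Values are detection intensities normalised to 1 for plasma thawed twice, compared against 4, 6 and 10 freeze-thaw cycles. Measured by electrospray LC/MS in MRM mode, formic acid water/acetonitrile mobile phase, column at 40° C. Plasma came from EDTA blood, cooled to 4° C and spun at 3000 rpm for 15 min.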

The nature of data set [4]: GC/MS of blood plasma sample: time from blood collection to centrifugation (Table A). As to conditions: for Increase or decrease: detection intensity, after 4 hours vs 15 minutes; for Increase or decrease / Rate of increase or decrease: blood collection to centrifugation; for Rate of increase or decrease: detection intensity relative to 1 at 15 minutes. The procedure, abridged:
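Read-out is MRM detection intensity by electron-ionization GC/MS on a BPX5 column after methoxymation and trimethylsilylation, expressed relative to a 15-minute collection-to-centrifugation interval. Plasma was prepared from EDTA blood held at 4° C and spun at 4° C, 3000 rpm for 15 minutes, then frozen.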

Data set [5] can be described thus: LC/MS of blood plasma sample: time from blood collection to centrifugation (Table D). The following applies: for Rate of increase or decrease: detection intensity relative to 1 at 15 minutes; for Rate of increase or decrease / Increase or decrease: blood collection to centrifugation; for Increase or decrease: detection intensity. The procedure, abridged:
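Detection intensities are expressed relative to samples centrifuged 15 min after collection (=1), measured by electrospray LC/MS in MRM mode (Discovery HS F5-3, 40 °C, formic acid water/acetonitrile gradient at 0.25 mL/min). EDTA blood from a healthy donor was held at 4 °C, centrifuged at 4 °C, 3000 rpm, 15 min, and plasma frozen.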

Data set [6] in a line: GC/MS of blood plasma sample: number of times of freezing and thawing (Table C). As to conditions: for Increase or decrease: detection intensity; for Rate of increase or decrease: detection intensity relative to 1 at 2 times. The gist of the method:
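Values express detection intensity as a ratio to the 2-cycle freeze-thaw sample (=1), compared with 4, 6 and 10 cycles. Healthy-donor EDTA plasma, cooled at ≤1 min or ≥5 min, spun at 4 °C, 3000 rpm, 15 min. Derivatised by methoxymation/trimethylsilylation; GC-MS/MS in MRM mode with electron ionization.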

Data set [7] is described as follows: GC/MS of serum sample: time from centrifugation to isolation (Table H). More on the design: key to Rate of increase or decrease / Rate of increase or decrease (first value, increase): detection intensity relative to 1 at 30 min centrifugation-to-isolation. The following applies: for Rate of increase or decrease: detection intensity relative to 1 at 30 minutes; for Increase or decrease: detection intensity. The gist of the method:
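Values are GC/MS (EI, MRM) detection intensities of methoxymated/trimethylsilylated serum, normalised to 1 for the 30-min sample. Serum was isolated 30 min, 1 h or 6 h after room-temperature centrifugation (3500 rpm, 5 min) of blood.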

Data set [8] can be described thus: GC/MS of serum sample: number of times of freezing and thawing (Table I). More on the design: key to Rate of increase or decrease / Rate of increase or decrease (first value, increase): detection intensity relative to 2 freeze-thaw cycles = 1. The procedure, abridged:
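Detection intensities are ratios to the value after two freeze–thaw cycles, which is set as 1, compared against 4, 6 and 10 cycles. Analysis used methoxymation and trimethylsilylation derivatization, then GC/MS with EI ionization and multiple reaction monitoring on a BPX5 column. Serum came from blood held at room temperature and spun at 3500 rpm for 5 min.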

Where [9] appears, read: freezing and thawing 4 times vs 2 times.
Setting [10] is: different from individual to individual, individuals with decrease, relative to 1 at 15 minutes, collection to centrifugation, after 4 hours.
Where [11] appears, read: different from individual to individual, individuals with increase, relative to 1 at 15 minutes, collection to centrifugation, after 4 hours.
Setting [12] is: freezing and thawing 6 times vs 2 times.
Where [13] appears, read: freezing and thawing 10 times vs 2 times.

With `O=c1[nH]c(=O)c2[nH]cnc2[nH]1` [Xanthine], the “Rate of increase or decrease” value in data set [1] stood at 1.47; in data set [2] it was 2.50; in data set [3] (freezing and thawing 4 times) it was 1.77; in data set [5] (after 6 hours) it was 1.39. For the same compound, the Increase or decrease entry in data set [1] is “Increase”; in data set [2], “Increase”; in data set [3] (setting [9]), “Increase”; in data set [4] it was “Different from individual”; in data set [5] (after 6 hours vs 15 minutes), “Increase”; in data set [6] (setting [12]), “Different from individual”. Moreover, the “Time when compound is affected” value in data set [2] was “After 6 hours”. Moreover, the “Rate of increase or decrease (second value, decrease)” value is on record as 0.49 in data set [4] (setting [10]); 0.51 in data set [6] (different from individual to individual, individuals with decrease, relative to 1 at 2 times, freezing and thawing 6 times). In addition, the “Rate of increase or decrease (first value, increase)” value in data set [4] (setting [11]) came to 1.83; in data set [6] (different from individual to individual, individuals with increase, relative to 1 at 2 times, freezing and thawing 6 times), 2.21.

Turning to `CC(C)(CO)[C@@H](O)C(=O)NCCC(=O)O` [Pantothenic acid], the “Rate of increase or decrease” value in data set [3] (freezing and thawing 10 times) stood at 1.43; in data set [4] (after 4 hours), 3.15; in data set [7] (after 1 hour) it was 0.66; in data set [6] (freezing and thawing 4 times), 3.07; in data set [8] (detection intensity relative to 1 at 2 times, serum, GC/MS, freezing and thawing 4 times), 1.39. Besides, the Increase or decrease result in data set [3] (setting [13]) is “Increase”; in data set [4], “Increase”; in data set [7] (after 1 hour vs 30 minutes), “Decrease”; in data set [5] (after 6 hours vs 15 minutes) it was “Increase”; in data set [6] (setting [9]), “Increase”; in data set [8] (detection intensity, serum, GC/MS, freezing and thawing 4 times vs 2 times), “Increase”.

Take `NC(=O)NC1NC(=O)NC1=O` (stereo not drawn) [Allantoin]: the Increase or decrease entry in data set [1] is “Different from individual”; in data set [2], “Increase”; in data set [3] (setting [9]), “Decrease”; in data set [4], “Decrease”; in data set [7] (after 6 hours vs 30 minutes) it was “Increase”; in data set [5] (after 4 hours vs 15 minutes), “Decrease”. The Increase or decrease entry in data set [6] (setting [13]) was “Increase”; in data set [8] (detection intensity, serum, GC/MS, freezing and thawing 10 times vs 2 times), “Increase”. In addition, the “Rate of increase or decrease (second value, decrease)” value in data set [1] (different from individual to individual, individuals with decrease, relative to 1 at 1 minute or less, collection to cooling 5 minutes) was 0.40. Further, the “Rate of increase or decrease (first value, increase)” value in data set [1] (different from individual to individual, individuals with increase, relative to 1 at 1 minute or less, collection to cooling 5 minutes) is given as 1.57. Also, the “Rate of increase or decrease” value was found to be 10.46 in data set [2]; 0.55 in data set [3] (freezing and thawing 4 times); 0.18 in data set [4] (after 4 hours); 3.00 in data set [7] (after 6 hours); 0.52 in data set [5] (after 4 hours); 1.42 in data set [6] (freezing and thawing 10 times). In addition, the “Rate of increase or decrease” value in data set [8] (detection intensity relative to 1 at 2 times, serum, GC/MS, freezing and thawing 10 times) was determined as 2.94. Besides, the “Time when compound is affected” value in data set [2] is “After 6 hours”.

For the compound `O=c1[nH]cnc2nc[nH]c12` [Hypoxanthine], the “Rate of increase or decrease” value in data set [1] is given as 7.92; in data set [2], 2.78; in data set [3] (freezing and thawing 6 times), 2.04; in data set [7] (after 1 hour), 1.36; in data set [8] (10 times of freezing and thawing, relative to 1 at 2 times, different from individual to individual, first value (increase)), 1.47; in data set [8] (10 times of freezing and thawing, relative to 1 at 2 times, different from individual to individual, second value (decrease)) it was 0.66. Also, the Increase or decrease result in data set [1] is recorded as “Increase”; in data set [2], “Increase”; in data set [3] (setting [12]) it was “Increase”; in data set [7] (after 1 hour vs 30 minutes), “Increase”; in data set [5] (after 4 hours vs 15 minutes), “Different from individual”; in data set [8] (serum sample, GC/MS, detection intensity vs 2 times of freezing and thawing), “Different from individual”. For the same compound, the “Time when compound is affected” value in data set [2] is on record as “After 6 hours”. For the same compound, in data set [5] (setting [10]), the “Rate of increase or decrease (second value, decrease)” value was determined as 0.70. For the same compound, the “Rate of increase or decrease (first value, increase)” value in data set [5] (setting [11]) was found to be 3.84. In addition, the “Number of times when compound is affected” value in data set [8] (serum sample, GC/MS, detection intensity changed by 30% or more vs 2 times of freezing and thawing) is 10 times.

Source of the values: US20220146526A1, “METHOD FOR EVALUATING SAMPLE, ANALYSIS METHOD, METHOD FOR DETECTING DEGRADED SAMPLE, MARKER FOR DETECTING DEGRADED BLOOD PLASMA SAMPLE, AND MARKER FOR DETECTING DEGRADED SERUM SAMPLE” (SHIMADZU CORPORATION, priority 2019, published 2022).
